{
  "source": "paper PMC3806161",
  "about": "“Strychnos pseudoquina and Its Purified Compounds Present an Effective In Vitro Antileishmanial Activity” (Evidence-based Complementary and Alternative Medicine : eCAM, 2013)",
  "key": {"[1]": {"test_system": "murine macrophages", "description": "(§1) Cell viability was assessed by the MTT assay, and amphotericin B was used as a control. The selectivity index (SI) of the products was calculated by determining the ratio between IC50 and CC50. The hemolytic activity was investigated by incubating the products, in the same concentrations used for cytotoxicity evaluation, with a 5% red blood cell (human O^+) suspension for 1 h at 37°C. Briefly, the erythrocyte suspension was centrifuged (1000 ×g for 10 min), and cell lysis was determined spectrophotometrically (570 nm), as described [24]. The absence of (blank) or 100% presence of hemolysis (positive control) was determined by replacing the products for an equal volume of PBS or distilled water, respectively. The results were determined by the percentage of hemolysis when compared with the negative and positive controls. Data shown are representative of four independent experiments, performed in triplicate, which presented similar results."}, "[2]": {"test_system": "murine macrophages", "experiment": "Cytotoxicity assay on macrophages (MTT)", "conditions": "for SI, Selectivity Index (ratio between CC50 and IC50): murine macrophages vs L. amazonensis promastigotes", "description": "as §1"}, "[3]": {"test_system": "stationary-phase promastigotes of L. amazonensis", "experiment": "Antileishmanial activity: inhibition of promastigote viability (MTT)", "format": "cell-based, Leishmania amazonensis", "experimental": "Cell viability was assessed by measuring the cleavage of 2 mg/mL of MTT [3-(4.5-dimethylthiazol-2-yl)-2.5-diphenyl tetrazolium bromide] (Sigma). Absorbances were measured by using a multiwell scanning spectrophotometer (LABTRADE, model 660) at a wavelength of 570 nm. Amphotericin B (1 μM) was used as a positive control. The concentration of the products needed to inhibit 50% of the Leishmania viability (IC50) was determined by applying the sigmoidal regression of the concentration-response curves, using different concentrations of the compounds."}, "[4]": {"test_system": "Leishmania amazonensis invasion of murine macrophages", "experiment": "Inhibition of infection in phagocytic cells (pre-treated promastigotes)", "format": "cell-based", "conditions": "for reductions in infectivity of parasites after treatment: parasites preincubated 4 h at 24°C, versus about 87% infected macrophages with untreated parasites, concentration not given; for number of amastigotes per cell / Percentage of infected macrophages after treatment: 4 h at 24°C; for number of amastigotes per cell: untreated 8.4; for Percentage of infected macrophages after treatment: untreated 87.0", "experimental": "The inhibitory effect of quercetin 3-O-methyl ether and strychnobiflavone on the Leishmania invasion of macrophages was evaluated using promastigotes of L. amazonensis. Parasites (1 × 10^6 cells) were preincubated with different concentrations of quercetin 3-O-methyl ether (0, 70, 140, or 280 μM) or strychnobiflavone (0, 40, 80, or 160 μM) for 4 h at 24°C. […] After incubation, parasites were washed three times with RPMI 1640 medium, quantified, and incubated for 24 h with murine macrophages, using a ratio of 10 parasites per 1 macrophage. After, cells were washed, set, and stained to determine the percentage of infected macrophages by counting 200 cells in triplicate."}, "[5]": {"test_system": "O+ human red blood cells", "experiment": "Hemolytic activity", "format": "cell-based", "description": "as §1"}, "[6]": {"test_system": "L. amazonensis in infected murine macrophages", "experiment": "Treatment of infected macrophages", "format": "cell-based, Leishmania amazonensis", "conditions": "for number of amastigotes per cell: untreated 8.4; for Percentage of infected macrophages after treatment: untreated 87.0", "experimental": "Murine macrophages (5 × 10^5 cells) were plated on round glass coverslips inside the wells of a 24-well culture plate (Nunc) in an RPMI 1640 medium supplemented with 20% FBS, 2 mM L-glutamine, 200 U/mL penicillin, and 100 μg/mL streptomycin, at pH 7.4. After 24 h of incubation at 37°C in 5% CO2, stationary-phase promastigotes of L. amazonensis were added to the wells (5 × 10^6 cells), and the cultures were incubated for 24 h at 37°C in 5% CO2. A previous titration curve was performed to determine the minimum time incubation of parasites with the macrophages, in order to obtain the maximum of infection into the host cells (data not shown). Next, free parasites were removed by extensive washing with an RPMI 1640 medium, and infected macrophages were quantified and treated for 48 h with quercetin 3-O-methyl ether (0, 70, 140, or 280 μM) or strychnobiflavone (0, 40, 80 or 160 μM) for 48 h at […] in 5% CO2. Cells were washed in RPMI 1640 and incubated with 4% paraformaldehyde for 15 min, at which time they were treated with 70% ethanol in an ice bath for 4 h and again washed three times with sterile PBS. Amphotericin B was used as a control. The percentage of the inhibition of Leishmania intra-macrophage viability was determined by counting 200 cells in triplicate."}, "[7]": {"experiment": "Cytotoxicity assay on macrophages (MTT)", "conditions": "BALB/c, mouse, murine macrophages", "description": "as §1"}, "[8]": {"conditions": "Leishmania amazonensis, 48 h, stationary-phase promastigotes, 48 h at 24°C, MTT, read-out: IC50 (inhibitory concentration of 50% of promastigotes of L. amazonensis)"}, "[9]": {"conditions": "promastigotes pre-treated with 70 μM"}, "[10]": {"conditions": "promastigotes pre-treated with 140 μM"}, "[11]": {"conditions": "promastigotes pre-treated with 280 μM"}, "[12]": {"conditions": "infected macrophages treated with 70 μM for 48 h"}, "[13]": {"conditions": "infected macrophages treated with 140 μM for 48 h"}, "[14]": {"conditions": "infected macrophages treated with 280 μM for 48 h"}, "[15]": {"conditions": "promastigotes pre-treated with 40 μM"}, "[16]": {"conditions": "promastigotes pre-treated with 80 μM"}, "[17]": {"conditions": "promastigotes pre-treated with 160 μM"}, "[18]": {"conditions": "infected macrophages treated with 40 μM for 48 h"}, "[19]": {"conditions": "infected macrophages treated with 80 μM for 48 h"}, "[20]": {"conditions": "infected macrophages treated with 160 μM for 48 h"}},
  "note": "Read-outs that look alike come from different tables or passages of the source.",
  "data": [
    {"smiles": "C[C@@H]1[C@H](O)[C@@H](C)/C=C/C=C/C=C/C=C/C=C/C=C/C=C/[C@H](O[C@@H]2O[C@H](C)[C@@H](O)[C@H](N)[C@@H]2O)C[C@@H]2O[C@](O)(C[C@@H](O)C[C@@H](O)[C@H](O)CC[C@@H](O)C[C@@H](O)CC(=O)O[C@H]1C)C[C@H](O)[C@H]2C(=O)O", "note": "[AmpB, amphotericin B, reference compound]", "values": [
      {"measurement": "toxicity in murine macrophages (in words)", "setting": "[1]", "value": "highly cytotoxic"},
      {"measurement": "SI, Selectivity Index (ratio between CC50 and IC50)", "setting": "[2]", "value": 9.9},
      {"measurement": "IC50", "setting": "[3]; [8]", "value": "0.1 ± 0.13", "unit": "µM"}
    ]},
    {"smiles": "COc1c(-c2ccc(O)c(O)c2)oc2cc(O)cc(O)c2c1=O", "note": "[Quercetin 3-O-methyl ether, quercetin 3-O-methyl ether]", "values": [
      {"measurement": "reductions in infectivity of parasites after treatment", "setting": "[4]", "value": "~47", "unit": "%"},
      {"measurement": "number of amastigotes per cell", "setting": "[4]; [9]", "value": 4.5},
      {"measurement": "Percentage of infected macrophages after treatment", "setting": "[4]; [9]", "value": 67.8, "unit": "%"},
      {"measurement": "number of amastigotes per cell", "setting": "[4]; [10]", "value": 3.9},
      {"measurement": "Percentage of infected macrophages after treatment", "setting": "[4]; [10]", "value": 61.9, "unit": "%"},
      {"measurement": "number of amastigotes per cell", "setting": "[4]; [11]", "value": 2.4},
      {"measurement": "Percentage of infected macrophages after treatment", "setting": "[4]; [11]", "value": 46.1, "unit": "%"},
      {"measurement": "hemolytic activity / damage to human erythrocytes (in words)", "setting": "[5]", "value": "no significant damage"},
      {"measurement": "RBC50 (50% of human red blood cell lysis)", "setting": "[5]; human, 1 h", "value": "155.0 ± 33.2", "unit": "µM"},
      {"measurement": "toxicity in murine macrophages (in words)", "setting": "[1]", "value": "no significant toxicity"},
      {"measurement": "number of amastigotes per cell", "setting": "[6]; [12]", "value": 5.6},
      {"measurement": "Percentage of infected macrophages after treatment", "setting": "[6]; [12]", "value": 72.4, "unit": "%"},
      {"measurement": "number of amastigotes per cell", "setting": "[6]; [13]", "value": 4.4},
      {"measurement": "Percentage of infected macrophages after treatment", "setting": "[6]; [13]", "value": 68.0, "unit": "%"},
      {"measurement": "number of amastigotes per cell", "setting": "[6]; [14]", "value": 1.7},
      {"measurement": "Percentage of infected macrophages after treatment", "setting": "[6]; [14]", "value": 46.3, "unit": "%"},
      {"measurement": "SI, Selectivity Index (ratio between CC50 and IC50)", "setting": "[2]", "value": 24.62},
      {"measurement": "SI, Selectivity Index (ratio between CC50 and IC50)", "setting": "[2]; listed as Quercetin 3-methyl ether", "value": 24.6},
      {"measurement": "IC50", "setting": "[3]; [8]", "value": 8.08, "unit": "µM"},
      {"measurement": "IC50", "setting": "[3]; stationary-phase promastigotes, 48 h at 24°C, MTT, listed as Quercetin 3-methyl ether, read-out: IC50 (inhibitory concentration of 50% of promastigotes of L. amazonensis)", "value": "8.1 ± 1.5", "unit": "µM"}
    ]},
    {"smiles": "COc1c(-c2ccc(O)c(O)c2-c2c(O)cc(O)c3c(=O)c(OC)c(-c4ccc(O)c(O)c4)oc23)oc2cc(O)cc(O)c2c1=O", "note": "[Strychnobiflavone, strychnobiflavone]", "values": [
      {"measurement": "reductions in infectivity of parasites after treatment", "setting": "[4]", "value": "~72.6", "unit": "%"},
      {"measurement": "number of amastigotes per cell", "setting": "[4]; [15]", "value": 3.0},
      {"measurement": "Percentage of infected macrophages after treatment", "setting": "[4]; [15]", "value": 53.0, "unit": "%"},
      {"measurement": "number of amastigotes per cell", "setting": "[4]; [16]", "value": 2.2},
      {"measurement": "Percentage of infected macrophages after treatment", "setting": "[4]; [16]", "value": 47.8, "unit": "%"},
      {"measurement": "number of amastigotes per cell", "setting": "[4]; [17]", "value": 1.2},
      {"measurement": "Percentage of infected macrophages after treatment", "setting": "[4]; [17]", "value": 23.8, "unit": "%"},
      {"measurement": "RBC50 (50% of human red blood cell lysis)", "setting": "[5]; 5% human O+ red blood cell suspension, 1 h at 37°C", "value": "209.6 ± 2.5", "unit": "µM"},
      {"measurement": "hemolytic activity / damage to human erythrocytes (in words)", "setting": "[5]; O+ human red blood cells", "value": "no significant damage"},
      {"measurement": "number of amastigotes per cell", "setting": "[6]; [18]", "value": 1.5},
      {"measurement": "Percentage of infected macrophages after treatment", "setting": "[6]; [18]", "value": 37.9, "unit": "%"},
      {"measurement": "number of amastigotes per cell", "setting": "[6]; [19]", "value": 1.3},
      {"measurement": "Percentage of infected macrophages after treatment", "setting": "[6]; [19]", "value": 26.3, "unit": "%"},
      {"measurement": "number of amastigotes per cell", "setting": "[6]; [20]", "value": 0.4},
      {"measurement": "Percentage of infected macrophages after treatment", "setting": "[6]; [20]", "value": 9.6, "unit": "%"},
      {"measurement": "CC50 at 48 h", "setting": "[7]", "value": "125 ± 4.5", "unit": "µM"},
      {"measurement": "toxicity in murine macrophages (in words)", "setting": "[2]; in vitro, after incubation with the products", "value": "no significant toxicity"},
      {"measurement": "SI, Selectivity Index (ratio between CC50 and IC50)", "setting": "[2]", "value": 39.6},
      {"measurement": "SI, Selectivity Index (ratio between CC50 and IC50)", "setting": "[2]; listed as strychnobiflavone", "value": 39.55},
      {"measurement": "IC50", "setting": "[3]; Leishmania amazonensis, 48 h, read-out: IC50 (inhibitory concentration of 50% of promastigotes of L. amazonensis), stationary-phase promastigotes, 48 h at 24°C, MTT", "value": 3.16, "unit": "µM"},
      {"measurement": "IC50", "setting": "[3]; stationary-phase promastigotes, 48 h at 24°C, MTT, read-out: IC50 (inhibitory concentration of 50% of promastigotes of L. amazonensis)", "value": "3.2 ± 0.2", "unit": "µM"}
    ]}
  ]
}
